One data set has as its system breast cancer cells. Nature of the data set: Cell growth assay (crystal violet). It counts as cell-based, human. The settings on record: for inhibition at 50 µM: Homo sapiens, 72 hrs. From the text: Cells wereplated on 96-well (30,000 cells/well) or 24-well plates (50,000 cells/well). […] Cells were stained with crystal violet (0.5% in Methanol:Acetic Acid=3:1) and washed with PBS. Crystal violet was solubilized in DMSO and measured in a microplate reader at 592 nm.

Data set [1] concerns non-malignant cells (MCF10A, IEC-6, GES-1, C2C12). Description: Cell growth assay in non-malignant cells. It counts as cell-based, human, rat, murine. To be noted: 0˜100 μM, 24˜72 hrs. On the procedure: Cells wereplated on 96-well (30,000 cells/well) or 24-well plates (50,000 cells/well). After CADD522 (0˜100 μM) addition, cells were incubated for 24˜72 hrs. Cells were stained with crystal violet (0.5% in Methanol:Acetic Acid=3:1) and washed with PBS. Crystal violet was solubilized in DMSO and measured in a microplate reader at 592 nm.

The subject of another data set is BC cells. Nature of the data set: Anchorage-independent cell growth assay (soft agar). It counts as cell-based, human. To be noted: 50 μM. On the procedure: Cells (10,000) were mixed in 1 ml of 0.3% low-melting agarose over a 0.6% agar bottom layer in normal growth media. The medium (600 μl) with or without compound 1 (50 μM) on soft agar was changed three times a week for 2-3 weeks. Images of MDA-231 and MCF7 were taken using Nikon Eclipse TE-2000S microscope with Zen Pro image software, and of MDA-468 using Olympus CKX41 microscope with Q-Capture Pro 7 image software at indicated magnifications under the same exposure settings for corresponding vehicle and drug treatments.

Data set [2] relates to MCF7-tet-off (-Doxy), MDA-231, MDA-468 and MCF7 cells. Description: Tumorsphere assay. It counts as cell-based, human. The settings on record: 50 μM. On the procedure: Single cell suspensions (100,000 cells/well) wereplatedin 6-well ultra-low attachment plates (Corning) with 5 ml of EGM-2 supplemented with bullet kit (Lonza) and 2% FBS. compound 1 (50 μM) was added at the day of the plating or 4 days after plating. Tumorspheres were continuously photographed for 18 days and counted at the final day. Spheres were counted at 9 fields per well and averaged from triplicate.

In data set [3] the test system is RUNX2 transcriptional activity. Description: Luciferase-promoter reporter assay of RUNX2 target genes. The class given is cell-based, human. As for the experimental part: (§1) Cells were plated in 96-well plates (30,000 cells/well) and incubated overnight. Cells were co-transfected with indicated luciferase-reporter plasmids (25 ng/well) and pSV-Renilla-Luc (Promega) (15 ng/well) for 6 hrs and compound 1 ([…]) was further treated for 18-48 hrs. COX-2 (P2-274)-Luc (−170bp˜+104bp) and control plasmids (PXP2-Luc) were kindly provided byDr. Miguel A. Iñiguez (Universidad Autónoma de Madrid, Spain), and pNF-kb-Luc was from Dr. Hancai Dan (University of Maryland). Luciferase assay was performed using the Dual-Glo Luciferase Assay Systems as per manufacturer's recommendation (Promega).
(Reporter assays use an easily measured gene product as a stand-in for the process of interest.)

The test system of a further data set is COX-2 and NF-κb promoter. Nature of the data set: Luciferase reporter assay of promoters without Runt binding sequences. The class given is cell-based, human. The settings on record: MCF7-RUNX2 and MCF7-Empty cells, 0˜50 mM, 24 hrs. As for the experimental part: as §1
Another data set relates to Lats1/2. Description: Lats1/2 phosphorylation (Hippo signaling). The class given is cell-based, human. To be noted: compound 1, 24 hours. As for the experimental part:
In FIG. 22A HCC1428 luminal BC cells that express E-Cadherin were treated with recombinant soluble E-Cadherin (rsE-Cad) for 24 hr and total cell extracts were analyzed for phosphorylation of the Lats1/2 tumor suppressors. Phospho.Lats1/2 and total Lats1/2 levels declined with rsE-Cad treatment consistent with TAZ translocation to the nucleus, where it acts as an oncogene with RUNX2. […] MCF7 cells expressing RUNX2 (Tet.OFF) were treated with compound 1 drug for 24 hours and total cell extracts were analyzed for phosphp.Lats1/2, total Lats1/2, and RUNX2 expression.

A short description of data set [4]: Maximum tolerated dose (MTD) test. The class given is in vivo. The settings on record: up to 20 mg/kg, 2 weeks, athymic nude mice. From the text: Animal maintenance and experimental protocols are in accordance with the guidelines of the University of Maryland's Institutional Animal Care and Use Committee.
The test system of data set [5] is MCF7-tet-off-Luc (-Doxy) and 231-Luc cells. Nature of the data set: In vivo lung metastasis assay (BLI). Set-up: species or system NSG mice. To be noted: 10 mg/kg. On the procedure: For in vivo lung metastasis assay, MCF7-tet-off-Luc cells were grown for 3 days in the absence of Doxycyclin (−Doxy) and injected into the tail vein of the 8 week-old female NSG mice (1×10^6 cells/200 μl of PBS). After inoculation, the mice were randomly assigned to vehicle control and treatment groups. Vehicle (10% DMSO/90% PBS) and compound 1 (10 mg/kg) were injected i.p. 2 hrs after inoculation. The retention of the cells in the lung was monitored by noninvasive bioluminescence imaging for 24 hrs. For luciferase detection, 150 mg/mL D-luciferin (Caliper Life Sciences) in PBS was injected i.p. before imaging. Photometric measurement of metastasis was done by living Image software (Xenogen). In separate groups of mice, 231-Luc cells (1×10^6/200 μl of PBS) were injected, and the metastasis burden in the lung was quantified for 3 weeks.

These results are taken from patent US11634381B2, “RUNX2 transcription factor inhibitors and uses thereof” (University of Maryland, Baltimore, priority 2015, dated 2023).

Bounds are passed on as bounds.

By inhibition is commonly meant the drop in the measured response relative to a control, in per cent. A higher inhibition goes with a strong effect. On to `O=C(O)C1C2C=CC(C2)C1C(=O)Nc1ccc(Cl)c(Cl)c1` (stereo not drawn) [compound 1, 3-(N-(3,4-dichlorophenyl)carbamoyl)-5-norbornene-2-carboxylic acid], for which, in the data set with breast cancer cells (0˜100 μM, over 24 hrs), the “inhibition in cell viability” value was “no significant inhibition”. The cell growth inhibition entry in the data set with breast cancer cells (0˜100 μM, over 72 hrs) was “dose- and time-dependent cell growth inhibition”. The inhibition at 50 µM with breast cancer cells (MDA-MB-468 cells) was above 50%; with breast cancer cells (majority of TNBC and luminal type BC cells), below 50%. For the same compound, the “cell proliferation relative to vehicle controls” value with breast cancer cells (ectopic RUNX2-expressing MCF7 and T47D cells, 7 days) is “dramatic decrease”. In data set [1], the “sensitivity of non-malignant cells versus BC cell lines” value is reported as “much lower”. For the same compound, the anchorage-independent cell growth result with BC cells (2-3 weeks) is listed as “strongly inhibited”. Further, the “colony size relative to control” value in the data set with BC cells (MDA-231, MCF7, MDA-468) is listed as < 1/10. For the same compound, in [2], the “size and number of tumorspheres” value is reported as “dramatically decreased”. The MMP13 promoter activity entry is “did not attenuate” in [3] (BT474 cells that do not express RUNX2, 48 hrs) and “decreased significantly” in data set [3] (MDA-231 cells that express RUNX2, 48 hrs). In [3] (MCF7-RUNX2 cells), the “repression of MMP13 promoter-Luc activity” value is “about 50%”. For the same compound, the “promoter-Luc activities of control cells” value in data set [3] (T47D-Empty and MCF7-Empty) is on record as “little effect”. Also, the “promoter-luciferase activities of MMP13, VEGF and OC” value in data set [3] (T47D-RUNX2 and MCF7-RUNX2 cells, 48 hrs) was “dramatic decrease”. Moreover, the “RUNX2-repressed p21 promoter activity” value in data set [3] (T47D-RUNX2 cells) is “reactivated”. Also, the p6xOSE2-Luc activity result in [3] (T47D-RUNX2 cells) is recorded as “slightly but significantly reduced”. Moreover, the “MMP13 promoter-Luc activity” value in [3] (T47D-RUNX2 cells, 2 μM) was “almost completely blocked”. Further, in the data set on COX-2 and NF-κb promoter, the “COX-2 (P2-274)-Luc or pNF-κb-Luc promoter activities” value is listed as “no inhibitory effect”. Besides, the “phosphorylation of the Lats1/2 tumor suppressors” value in the data set with Lats1/2 is reported as “increase in phosphorylation”. Moreover, the “influence on body weight or general health” value in data set [4] was “no detectable influence”. Further, the “body weight and general health” value in [5] (NSG mice) was “did not significantly decrease body weight”. Besides, in data set [5] (231-Luc cells, 3 weeks), the “colonization and outgrowth in the lung versus vehicle” value is “significantly lower”. In data set [5] (MCF7-tet-off-Luc (-Doxy) cells), the “metastatic homing to the mouse lungs” value is reported as “no influence”. Moreover, the “lung retention of the cells” value in data set [5] (MCF7-tet-off-Luc (-Doxy) cells, 24 hrs) is “significantly reduced”.
